Reference: US20250277012A1 (Protagonist Therapeutics, Inc., priority 2021, published 2025)
Read-outs that look alike come from different tables or passages of the source. Starred links: 1 amine or outer side, 2 acyl side, 3 side chain; linkers in the order of their positions; H or OH if unused. Positions of bridges follow the written chain, without caps; N, C: chain ends. Non-standard residues stand in square brackets, D forms with d. Residues, ends and D or L forms follow the SMILES beside them. Groups on a side chain read outwards from the residue. *: point of attachment. CH3O(CH2CH2O)11CH2CH2CO = COCCOCCOCCOCCOCCOCCOCCOCCOCCOCCOCCOCCC(=O)*; X1 = C[N+](C)(CCNC(=O)CCCCCCCCCCCCCCCCC(=O)O)CC(=O)*; Ala(quinolin-3-yl) = N[C@@H](Cc1cnc2ccccc2c1)C(=O)O; X5 = CCCCCCCCCCCCCCCC(=O)NCC[N+](C)(C)CC(=O)*; C18 diacid = O=C(O)CCCCCCCCCCCCCCCCC(=O)*; Dip = N[C@H](C(=O)O)C(c1ccccc1)c1ccccc1; Phenylacetyl(4-F) = O=C(Cc1ccc(F)cc1)*; γGlu = O=C(O)[C@H](CCC(=O)[*:2])N[*:1]; NHCH2CHPh2 = c1ccc(C(CN*)c2ccccc2)cc1; dNMeY = CN[C@H](Cc1ccc(O)cc1)C(=O)O; Palmitoyl = CCCCCCCCCCCCCCCC(=O)*; NMeI = CC[C@H](C)[C@H](NC)C(=O)O; β3hF = N[C@H](CC(=O)O)Cc1ccccc1; X3 = CCCCCCCCCCCCCCCC(=O)NCCC*; NMeK = CN[C@@H](CCCCN)C(=O)O; Isovaleryl = CC(C)CC(=O)*; hCys = N[C@@H](CCS)C(=O)O; Dap = NC[C@H](N)C(=O)O; AEEA = NCCOCCOCC(=O)O; Ahx = NCCCCCC(=O)O

How the values were obtained:
ferroportin [1] = target: T1, ferroportin (Homo sapiens, UniProt Q9NP59); experiment: FPN activity assay: ferroportin-GFP internalization/degradation in HEK293 cells; format: cell-based; set-up: expressed in transfected cells; settings: ferroportin-GFP internalization/degradation, Table 6E, read-out: FPN IC50
T1 sequence (Q9NP59 1-571): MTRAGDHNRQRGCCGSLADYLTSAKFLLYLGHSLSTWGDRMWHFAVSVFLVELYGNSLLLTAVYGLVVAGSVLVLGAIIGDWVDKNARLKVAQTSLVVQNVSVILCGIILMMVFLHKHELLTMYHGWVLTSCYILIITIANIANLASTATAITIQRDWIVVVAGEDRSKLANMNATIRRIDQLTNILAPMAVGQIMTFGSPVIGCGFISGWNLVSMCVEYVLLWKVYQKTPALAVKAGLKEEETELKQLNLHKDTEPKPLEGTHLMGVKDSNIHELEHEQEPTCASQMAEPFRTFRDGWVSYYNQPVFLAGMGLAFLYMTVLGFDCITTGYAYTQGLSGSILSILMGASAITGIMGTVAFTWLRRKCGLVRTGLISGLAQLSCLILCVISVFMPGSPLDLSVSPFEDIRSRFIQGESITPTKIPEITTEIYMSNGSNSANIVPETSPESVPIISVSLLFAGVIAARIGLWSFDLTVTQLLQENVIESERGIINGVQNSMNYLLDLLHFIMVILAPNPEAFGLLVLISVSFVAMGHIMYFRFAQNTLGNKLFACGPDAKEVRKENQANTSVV
Experimental: Following internalization, the ferroporin protein is degraded.
A retro inverse peptide is a peptide with a reversed sequence in all D amino acids. An example is that Hy-Glu-Thr-His-NH2 becomes Hy-DHis-DThr-DGlu-NH2. The EC50 of these reference compounds for ferroportin internalization/degradation was determined according to the FPN activity assay described above. These peptides served as control standards.

ferroportin [2] = target: T1, ferroportin; experiment: T47D cell-based ferroportin internalization assay in presence of mouse serum albumin (MSA); set-up: a human breast carcinoma adherent cell line which endogenously expresses ferroportin; host or cells: T47D; settings: Table 6E
Summary of the method: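 Peptide potency for inducing ferroportin internalization was measured in T47D cells in the presence of serum albumin. Cells grown in RPMI with fetal bovine serum were seeded in 96-well plates at 80-100 k cells per well in 100 ul and rested overnight. Dilution series of test peptides were preincubated 30 min at room temperature, then added to the cells after the medium was aspirated.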

[3] = T47D internalization assay in presence of mouse serum albumin (MSA)
[4] = T47D internalization assay with MSA

SMILES	DC50 (ferroportin [1]; HEK293 cells)	IC50 (ferroportin [2]; [3])	DC50 (ferroportin [1]; at least 18 hours incubation)	IC50 (ferroportin [2]; [4])
C[C@@H](O)[C@H](NC(=O)[C@H](CCC(=O)O)NC(=O)Cc1ccc(F)cc1)C(=O)N[C@@H](Cc1c[nH]cn1)C(=O)N[C@H](C(=O)N1CCC[C@H]1C(=O)N[C@H]1CSSC[C@@H](C(=O)N(C)[C@@H](CCCCNC(=O)COCCOCCNC(=O)COCCOCCNC(=O)[C@H](CN)NC(=O)CCCCCCCCCCCCCCCCC(=O)O)C(=O)N[C@H](CC(=O)N[C@H](CCCCN)C(N)=O)Cc2ccccc2)NC1=O)C(c1ccccc1)c1ccccc1 [compound 298] ({Phenylacetyl(4-F)}-ETH[Dip]PCC[NMeK]([AEEA-AEEA-Dap-C18 diacid])[β3hF][dK]-NH2; disulfide 6-7)	10 to 100 nM	10 to 100 nM	–	–
CC(C)CC(=O)N[C@@H](CCC(=O)O)C(=O)N[C@H](C(=O)N[C@@H](Cc1c[nH]cn1)C(=O)N[C@H](C(=O)N1CCC[C@H]1C(=O)N[C@H]1CSSC[C@@H](C(=O)N(C)[C@@H](CCCCNC(=O)COCCOCCNC(=O)COCCOCCNC(=O)[C@H](CN)NC(=O)CCCCCCCCCCCCCCCCC(=O)O)C(=O)N[C@H](CC(=O)N[C@H](CCCCN)C(=O)N(C)[C@H](Cc2ccc(O)cc2)C(N)=O)Cc2ccccc2)NC1=O)C(c1ccccc1)c1ccccc1)[C@@H](C)O [compound 257] (Isovaleryl-ETH[Dip]PCC[NMeK]([AEEA-AEEA-Dap-C18 diacid])[β3hF][dK][dNMeY]-NH2; disulfide 6-7)	10 to 100 nM	10 to 100 nM	–	–
CCCCCCCCCCCCCCCC(=O)NCCCCCC(=O)NCCCC[C@@H](C(=O)NCC(c1ccccc1)c1ccccc1)N(C)C(=O)[C@@H]1CSSC[C@H](NC(=O)[C@@H]2CCCN2C(=O)[C@@H](NC(=O)[C@H](Cc2cnc[nH]2)NC(=O)[C@@H](NC(=O)[C@H](CCC(=O)O)NC(=O)CC(C)C)[C@@H](C)O)C(c2ccccc2)c2ccccc2)C(=O)N1 [compound 163] (Isovaleryl-ETH[Dip]PCC[NMeK]([Ahx-Palmitoyl])-NHCH2CHPh2; disulfide 6-7)	–	–	10 to 100 nM	1 to 10 nM
CC(C)CC(=O)N[C@@H](CCC(=O)O)C(=O)N[C@H](C(=O)N[C@@H](Cc1cnc2ccccc2c1)C(=O)N[C@H](C(=O)N1CCC[C@H]1C(=O)N[C@H]1CSSC[C@@H](C(=O)N(C)[C@@H](CCCCNC(=O)COCCOCCNC(=O)COCCOCCNC(=O)[C@H](CN)NC(=O)CCCCCCCCCCCCCCCCC(=O)O)C(=O)N[C@H](CC(=O)N[C@H](CCCCN)C(N)=O)Cc2ccccc2)NC1=O)C(c1ccccc1)c1ccccc1)[C@@H](C)O [compound 296] (Isovaleryl-ET[Ala(quinolin-3-yl)][Dip]PCC[NMeK]([AEEA-AEEA-Dap-C18 diacid])[β3hF][dK]-NH2; disulfide 6-7)	> 500 nM	> 500 nM	–	–
COC(=O)CC[C@H](NC(=O)CC(C)C)C(=O)N[C@H](C(=O)N[C@@H](Cc1c[nH]cn1)C(=O)N[C@H](C(=O)N1CCC[C@H]1C(=O)N[C@H]1CSSC[C@@H](C(=O)N(C)[C@@H](CCCCNC(=O)CCCCCNC(=O)C[N+](C)(C)CCNC(=O)CCCCCCCCCCCCCCCCC(=O)O)C(=O)N[C@H](C(=O)N[C@H](CCCCN)C(N)=O)C(c2ccccc2)c2ccccc2)NC1=O)C(c1ccccc1)c1ccccc1)[C@@H](C)O [compound 232] (Isovaleryl-E(OMe)TH[Dip]PCC[NMeK]([Ahx-X1])[Dip][dK]-NH2; disulfide 6-7)	10 to 100 nM	10 to 100 nM	–	–
CCCCCCCCCCCCCCCC(=O)N[C@@H](CCC(=O)NCCCC[C@@H](C(=O)N[C@H](CC(=O)N[C@H](CCCCNC(=O)CCOCCOCCOCCOCCOCCOCCOCCOCCOCCOCCOCCOC)C(N)=O)Cc1ccccc1)N(C)C(=O)[C@@H]1CSSC[C@H](NC(=O)[C@@H]2CCCN2C(=O)[C@@H](NC(=O)[C@H](Cc2cnc[nH]2)NC(=O)[C@@H](NC(=O)[C@H](CCC(=O)O)NC(=O)CC(C)C)[C@@H](C)O)C(c2ccccc2)c2ccccc2)C(=O)N1)C(=O)O [compound 222] (Isovaleryl-ETH[Dip]PCC[NMeK]([γGlu-Palmitoyl])[β3hF][dK](CH3O(CH2CH2O)11CH2CH2CO)-NH2; disulfide 6-7)	–	–	10 to 100 nM	1 to 10 nM
CC(C)CC(=O)N[C@@H](CCC(=O)O)C(=O)N[C@H](C(=O)N[C@@H](Cc1cnc[nH]1)C(=O)N[C@H](C(=O)N1CCC[C@H]1C(=O)N[C@H]1CSSC[C@@H](C(=O)N(C)[C@@H](CCCCNC(=O)COCCOCCNC(=O)COCCOCCNC(=O)[C@H](CN)NC(=O)CCCCCCCCCCCCCCCCC(=O)O)C(=O)N[C@H](CC(=O)N(C)[C@@H](CCCCN)C(N)=O)Cc2ccccc2)NC1=O)C(c1ccccc1)c1ccccc1)[C@@H](C)O [compound 292] (Isovaleryl-ETH[Dip]PCC[NMeK]([AEEA-AEEA-Dap-C18 diacid])[β3hF][NMeK]-NH2; disulfide 6-7)	10 to 100 nM	1 to 10 nM	–	–
COC(=O)CCC(CCCC(C)C)C(=O)N[C@H](C(=O)N[C@@H](Cc1c[nH]cn1)C(=O)N[C@H](C(=O)N1CCC[C@H]1C(=O)N[C@H]1CSSC[C@@H](C(=O)N(C)[C@@H](CCCCNC(=O)CCCCCNC(=O)C[N+](C)(C)CCNC(=O)CCCCCCCCCCCCCCCCC(=O)O)C(=O)N[C@H](C(=O)N[C@H](CCCCN)C(N)=O)C(c2ccccc2)c2ccccc2)NC1=O)C(c1ccccc1)c1ccccc1)[C@@H](C)O (single isomer, unassigned) [compound 138]	–	–	10 to 100 nM	100 to 500 nM
CCCCCCCCCCCCCCCC(=O)NCCCC[C@H]1C(=O)N[C@@H](C(c2ccccc2)c2ccccc2)C(=O)N[C@@H](C(N)=O)CCCCNC(=O)CC[C@H](NC(=O)CC(C)C)C(=O)N[C@@H]([C@@H](C)O)C(=O)N[C@@H](Cc2c[nH]cn2)C(=O)N[C@@H](C(c2ccccc2)c2ccccc2)C(=O)N2CCC[C@H]2C(=O)N[C@H]2CSSC[C@H](NC2=O)C(=O)N1C [compound 142] (Isovaleryl-ETH[Dip]PCC[NMeK](Palmitoyl)[Dip][dK]-NH2; lactam 1-10; disulfide 6-7)	–	–	1 to 10 nM	10 to 100 nM

The next lines start with the values.

DC50 (ferroportin [1]; HEK293 cells)	IC50 (ferroportin [2]; [3])	DC50 (ferroportin [1]; at least 18 hours incubation)	IC50 (ferroportin [2]; [4])	SMILES
–	–	1 to 10 nM	10 to 100 nM	COC(=O)CC[C@H](NC(=O)CC(C)C)C(=O)N[C@H](C(=O)N[C@@H](Cc1c[nH]cn1)C(=O)N[C@H](C(=O)N1CCC[C@H]1C(=O)N[C@H]1CSSC[C@@H](C(=O)N(C)[C@@H](CCCCNC(=O)CCCCCNC(=O)[C@H](CN)NC(=O)CCCCCCCCCCCCCCCCC(=O)O)C(=O)N[C@H](C(=O)N[C@H](CCCCN)C(N)=O)C(c2ccccc2)c2ccccc2)NC1=O)C(c1ccccc1)c1ccccc1)[C@@H](C)O [compound 207] (Isovaleryl-E(OMe)TH[Dip]PCC[NMeK]([Ahx-Dap-C18 diacid])[Dip][dK]-NH2; disulfide 6-7)
10 to 100 nM	10 to 100 nM	–	–	CC[C@H](C)[C@@H](C(N)=O)N(C)C(=O)[C@@H](CCCCN)NC(=O)C[C@H](Cc1ccccc1)NC(=O)[C@H](CCCCNC(=O)COCCOCCNC(=O)COCCOCCNC(=O)[C@H](CN)NC(=O)CCCCCCCCCCCCCCCCC(=O)O)N(C)C(=O)[C@@H]1CSSC[C@H](NC(=O)[C@@H]2CCCN2C(=O)[C@@H](NC(=O)[C@H](Cc2c[nH]cn2)NC(=O)[C@@H](NC(=O)[C@H](CCC(=O)O)NC(=O)CC(C)C)[C@@H](C)O)C(c2ccccc2)c2ccccc2)C(=O)N1 [compound 262] (Isovaleryl-ETH[Dip]PCC[NMeK]([AEEA-AEEA-Dap-C18 diacid])[β3hF][dK][NMeI]-NH2; disulfide 6-7)
–	–	10 to 100 nM	1 to 10 nM	CCCCCCCCCCCCCCCC(=O)NCCCSCC[C@H](NC(=O)[C@@H]1CSSC[C@H](NC(=O)[C@@H]2CCCN2C(=O)[C@@H](NC(=O)[C@H](Cc2cnc[nH]2)NC(=O)[C@@H](NC(=O)[C@H](CCC(=O)O)NC(=O)CC(C)C)[C@@H](C)O)C(c2ccccc2)c2ccccc2)C(=O)N1)C(=O)N[C@H](C(=O)N[C@H](CCCCN)C(N)=O)C(c1ccccc1)c1ccccc1 [compound 162] (Isovaleryl-ETH[Dip]PCC[hCys](X3)[Dip][dK]-NH2; disulfide 6-7)
–	–	10 to 100 nM	1 to 10 nM	CCCCCCCCCCCCCCCC(=O)NCC[N+](C)(C)CC(=O)NCCCC[C@@H](C(=O)N[C@H](C(=O)N[C@H](CCCCN)C(N)=O)C(c1ccccc1)c1ccccc1)N(C)C(=O)[C@@H]1CSSC[C@H](NC(=O)[C@@H]2CCCN2C(=O)[C@@H](NC(=O)[C@H](Cc2cnc[nH]2)NC(=O)[C@@H](NC(=O)[C@H](CCC(=O)O)NC(=O)CC(C)C)[C@@H](C)O)C(c2ccccc2)c2ccccc2)C(=O)N1 [compound 194] (Isovaleryl-ETH[Dip]PCC[NMeK](X5)[Dip][dK]-NH2; disulfide 6-7)
